Source: BindingDB's records for doi:10.1021/jm100157m (University of Arizona, 2010)

Experiment: Agonist activity at mu opioid receptor in guinea pig ileum assessed as inhibition of electrically-stimulated muscle contraction

SMILES: CSCC[C@H](NC(=O)[C@H](Cc1ccccc1)NC(=O)CNC(=O)[C@@H](C)NC(=O)[C@@H](N)Cc1ccc(O)cc1)C(=O)N1CCC[C@H]1C(=O)N[C@@H](CC(C)C)C(=O)N[C@@H](Cc1c[nH]c2ccccc12)C(=O)NCc1cc(C(F)(F)F)cc(C(F)(F)F)c1 [Tyr-D-Ala-Gly-Phe-Met-Pro-Leu-Trp-NH-3,5-Bzl(CF 3) 2]
- IC50: 420 nM
